Data from patent US20090042865A1, “DNA-PK INHIBITORS” (priority 2007, published 2009).
Read-outs that look alike come from different tables or passages of the source.

What was measured:
DNA-PK = DNA-PK (Homo sapiens, UniProt P78527); test: DNA-PK inhibition assay (ELISA, phosphorylation of GST-p53N66); type: biochemical, Mammalian (isolated from HeLa cell nuclear extract)
Protocol: In order to assess the inhibitory action of the compounds against DNA-PK in vitro, the following assay was used to determine IC50 values.
To the assay mix, varying concentrations of inhibitor (in DMSO at a final concentration of 1%) were added. After 10 minutes of incubation, ATP was added to give a final concentration of 50 μM along with a 30mer double stranded DNA oligonucleotide (final concentration of 0.5 ng/ml) to initiate the reaction. After 1 hour with shaking, 150 μl of phosphate buffered saline (PBS) was added to the reaction and 5 μl then transferred to a 96 well opaque white plate containing 45 μl of PBS per well where the GSTp53N66 substrate was allowed to bind to the wells for 1 hour. To detect the phosphorylation event on the serine 15 residue of p53 elicited by DNA-PK a p53 phosphoserine-15 antibody (Cell Signaling Technology) was used in a basic ELISA procedure. An anti-rabbit HRP conjugated secondary antibody (Pierce) was then employed in the ELISA before the addition of chemiluminescence reagent (NEN Renaissance) to detect the signal as measured by chemiluminescent counting via a TopCount NXT (Packard).
The enzyme activity for each compound is then calculated using the following equation: […]
These are determined over a range of different concentrations, normally from 10 μM down to 0.001 μM. Such IC50 values are used as comparative values to identify increased compound potencies.

PI 3-kinase = conditions: stated to be the same as towards DNA-PK; cited from earlier work
cells = conditions: cited from earlier work
HeLa cells = test: Survival Enhancement Ratio, clonogenic survival assay after 2 Gray irradiation; type: cell-based; conditions: prior-art compound of WO 03/024949; concentration not given
Protocol: The Survival Enhancement Ratio (SER) is a ratio of the enhancement of cell kill elicited by the DNA-PK inhibitor after 2 Grays of irradiation compared to […]. DNA-PK inhibitors were used at a concentration of 25, 50, 100 and/or 500 nM. Radiation was delivered by a Faxitron 43855D machine at a dose rate of 1 Gy pre minute The SER at 2 Gray irradiation was calculated from the formula:
The degree of cell killing was monitored by a standard clonogenic survival assay. Briefly, tissue culture treated 6-well plates were seeded with HeLa cells at an appropriate concentration to give 100-200 colonies per well and returned to the incubator in order to allow the cells to attach. Four hours later, compound or vehicle control was added to the cells. The cells were then incubated for 1 hour in the presence of inhibitor prior to irradiation at 2 Gray using a Faxitron 43855D cabinet X-ray machine. The cells were then incubated for a further 16 hours before the media was replaced with fresh media in the absence of DNA-PK inhibitor. After 8 days, colonies formed were fixed and stained with Giemsa (Sigma, Poole, UK) and scored using an automated colony counter (Oxford Optronics Ltd, Oxford, UK). The data was calculated as described above.

[1] = IC50 (mean IC50 of the compounds), mean, DNA-PK from HeLa nuclear extract, 50 μM ATP
[2] = mean, DNA-PK from HeLa nuclear extract, 50 μM ATP, read-out: IC50 (mean IC50 of the compounds)

SMILES	IC50 (DNA-PK; [1])	IC50 (DNA-PK; mean IC50, read-out: IC50)	IC50 (DNA-PK; [2])	other results
O=C(C1CCCO1)N1CCN(c2ccc(-c3cccc4c(=O)cc(N5CCOCC5)oc34)c3sc4ccccc4c23)CC1 (stereo not shown) [Compound 1k]	80 nM			
O=c1cc(N2CCOCC2)oc2c(-c3ccc(N4CCN(CCOCCO)CC4)c4c3sc3ccccc34)cccc12 [Compound 1d]	8 nM			IC50 (DNA-PK; IC50, mean IC50): < 50 nM
COC1CCN(c2ccc(-c3cccc4c(=O)cc(N5CCOCC5)oc34)c3sc4ccccc4c23)CC1 [Compound 1p]	173 nM			
CC(C)(C)OC(=O)N1CCN(c2ccc(-c3cccc4c(=O)cc(N5CCOCC5)oc34)c3sc4ccccc4c23)CC1 [Compound 1c, 4-[4-(2-Morpholin-4-yl-4-oxo-4H-chromen-8-yl)-dibenzothiophen-1-yl]-piperazine-1-carboxylic acid tert-butyl ester]	447 nM			
O=c1cc(N2CCOCC2)oc2c(-c3ccccc3)cccc12 [LY294002]				IC50 (PI 3-kinase): ~1000 nM; sensitisation of cells to the effects of IR (cells): weakly sensitise
CC(C)N1CCN(c2ccc(-c3cccc4c(=O)cc(N5CCOCC5)oc34)c3sc4ccccc4c23)CC1 [Compound 1e]	17 nM			IC50 (DNA-PK; IC50, mean IC50): < 50 nM
CN(C)C1CCN(c2ccc(-c3cccc4c(=O)cc(N5CCOCC5)oc34)c3sc4ccccc4c23)CC1 [Compound 1n]	13 nM			IC50 (DNA-PK; IC50, mean IC50): < 50 nM
CCOC1CCN(c2ccc(-c3cccc4c(=O)cc(N5CCOCC5)oc34)c3sc4ccccc4c23)CC1 [Compound 1o]	400 nM			
O=c1cc(N2CCOCC2)oc2c(-c3ccc(N4CCCC(F)C4)c4c3sc3ccccc34)cccc12 (stereo not shown) [Compound 1m]	136 nM			
CC(=O)N1CCN(c2ccc(-c3cccc4c(=O)cc(N5CCOCC5)oc34)c3sc4ccccc4c23)CC1 [Compound 1j]	31 nM			
CCN1CCN(c2ccc(-c3cccc4c(=O)cc(N5CCOCC5)oc34)c3sc4ccccc4c23)CC1 [Compound 1b]	8 nM			IC50 (DNA-PK; IC50, mean IC50): < 50 nM
O=c1cc(N2CCOCC2)oc2c(-c3ccc(N4CCNCC4)c4c3sc3ccccc34)cccc12 [Compound 1a, 2-Morpholin-4-yl-8-(1-piperazin-1-yl-dibenzothiophen-4-yl)-chromen-4-one]	11 nM			IC50 (DNA-PK; IC50, mean IC50): < 50 nM
O=c1cc(N2CCOCC2)oc2c(-c3ccc(N4CCC(N5CCOCC5)CC4)c4c3sc3ccccc34)cccc12 [Compound 1f]	24 nM			IC50 (DNA-PK; IC50, mean IC50): < 50 nM
O=c1cc(N2CCOCC2)oc2c(-c3cccc4c3sc3ccccc34)cccc12 [reference compound]				SER (HeLa cells): 1.3; IC50 (DNA-PK; IC50, prior-art compound of WO 03/024949, methods as below in the patent): 10 to 12 nM
CC(C)(C)OC(=O)N1CCCN(c2ccc(-c3cccc4c(=O)cc(N5CCOCC5)oc34)c3sc4ccccc4c23)CC1 [Compound 1h]	86 nM			
CC1CN(c2ccc(-c3cccc4c(=O)cc(N5CCOCC5)oc34)c3sc4ccccc4c23)CC(C)N1 (stereo not shown) [Compound 1g]	12 nM			IC50 (DNA-PK; IC50, mean IC50): < 50 nM

The next lines start with results.

IC50 (DNA-PK; [1])	IC50 (DNA-PK; mean IC50, read-out: IC50)	IC50 (DNA-PK; [2])	SMILES	other results
	< 50 nM	11 nM	CC(=O)C(C)N1CCN(c2ccc(-c3cccc4c(=O)cc(N5CCOCC5)oc34)c3sc4ccccc4c23)CC1 (stereo not shown) [Compound 2a]	
		9 nM	CCCOCCN1CCN(c2ccc(-c3cccc4c(=O)cc(N5CCOCC5)oc34)c3sc4ccccc4c23)CC1 [Compound 2j]	
	< 50 nM	24 nM	CS(=O)(=O)N1CCN(c2ccc(-c3cccc4c(=O)cc(N5CCOCC5)oc34)c3sc4ccccc4c23)CC1 [Compound 3a]	
	< 50 nM	4 nM	COCCOCCN1CCN(c2ccc(-c3cccc4c(=O)cc(N5CCOCC5)oc34)c3sc4ccccc4c23)CC1 [Compound 2b]	
	< 50 nM	7 nM	CC(C)NC(=O)CN1CCN(c2ccc(-c3cccc4c(=O)cc(N5CCOCC5)oc34)c3sc4ccccc4c23)CC1 [Compound 2o]	
		21 nM	O=c1cc(N2CCOCC2)oc2c(-c3ccc(N4CCN(CC5CCCO5)CC4)c4c3sc3ccccc34)cccc12 (stereo not shown) [Compound 2i]	
	< 50 nM	21 nM	CCS(=O)(=O)N1CCN(c2ccc(-c3cccc4c(=O)cc(N5CCOCC5)oc34)c3sc4ccccc4c23)CC1 [Compound 3b]	
		43 nM	O=c1cc(N2CCOCC2)oc2c(-c3ccc(N4CCN(C5CCCCC5O)CC4)c4c3sc3ccccc34)cccc12 (stereo not shown) [Compound 2k]	
	< 50 nM	3 nM	O=c1cc(N2CCOCC2)oc2c(-c3ccc(N4CCN(CCO)CC4)c4c3sc3ccccc34)cccc12 [Compound 2m]	
	< 50 nM	11 nM	CCCN1CCN(c2ccc(-c3cccc4c(=O)cc(N5CCOCC5)oc34)c3sc4ccccc4c23)CC1 [Compound 2f]	
		7 nM	NCCN1CCN(c2ccc(-c3cccc4c(=O)cc(N5CCOCC5)oc34)c3sc4ccccc4c23)CC1 [Compound 2l]	
	< 50 nM	6 nM	COCCN1CCN(c2ccc(-c3cccc4c(=O)cc(N5CCOCC5)oc34)c3sc4ccccc4c23)CC1 [Compound 2c]	
	< 50 nM	7 nM	CCOCCN1CCN(c2ccc(-c3cccc4c(=O)cc(N5CCOCC5)oc34)c3sc4ccccc4c23)CC1 [Compound 2e]	
	< 50 nM	17 nM	O=c1cc(N2CCOCC2)oc2c(-c3ccc(N4CCN(CC5CC5)CC4)c4c3sc3ccccc34)cccc12 [Compound 2g]	
